Values joined by “and” are separate entries in the source; they are usually repeats but may differ in a detail not shown here. Identical values can stand only once. Blank lines part the entries; values can stand above or below the molecule they belong to. Active and inactive are the calls of the source.
Experiments:
[1] = target: Serine/threonine-protein kinase D2 (Homo sapiens, UniProt Q9BZL6); type: functional;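 note: measured against PRKD2 as one member of a kinome-wide kinase profiling panel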
[2] = target: Mast/stem cell growth factor receptor Kit (Homo sapiens, UniProt P10721); type: functional;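 note: KIT entry within a kinase panel assay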
[3] = target: Tyrosine-protein kinase Lyn (Homo sapiens, UniProt P07948); type: functional;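 note: lyn as one member of a kinase panel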
[4] = target: High affinity nerve growth factor receptor (Homo sapiens, UniProt P04629); type: functional;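 note: NTRK1 tested as one member of a kinome-wide profiling panel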
[5] = target: Serine/threonine-protein kinase pim-3 (Homo sapiens, UniProt Q86V86); type: functional;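 note: value obtained as one member of a broad kinase panel profiling effort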
[6] = target: Receptor-type tyrosine-protein kinase FLT3 (Homo sapiens, UniProt P36888); type: functional;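 note: FLT3 was tested as one member of a kinome-wide kinase panel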
[7] = target: Maternal embryonic leucine zipper kinase (Homo sapiens, UniProt Q14680); type: functional
[8] = target: RAC-alpha serine/threonine-protein kinase (Homo sapiens, UniProt P31749); type: functional;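 note: AKT1 affinity measured as one member of a kinome-wide kinase profiling panel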
[9] = target: 3-phosphoinositide-dependent protein kinase 1 (Homo sapiens, UniProt O15530); type: functional;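 note: value comes from the Navigating the Kinome panel, PDPK1 member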
[10] = target: Vascular endothelial growth factor receptor 1 (Homo sapiens, UniProt P17948); type: functional;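 note: measured within a kinome-wide profiling panel, FLT1 as the panel member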
[11] = target: cAMP-dependent protein kinase catalytic subunit alpha (Homo sapiens, UniProt P17612); type: functional
[12] = target: Lymphokine-activated killer T-cell-originated protein kinase (Homo sapiens, UniProt Q96KB5); type: functional;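 note: value comes from a kinase panel screen in which TOPK was one of the panel members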
[13] = target: Macrophage colony-stimulating factor 1 receptor (Homo sapiens, UniProt P07333); type: functional;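 note: value comes from the Navigating the Kinome screening panel, CSF1R member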
[14] = target: Serine/threonine-protein kinase 3 (Homo sapiens, UniProt Q13188); type: functional;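 note: measured as one member of a kinome-wide kinase panel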
[15] = target: T1, Mannose-6-phosphate isomerase (Homo sapiens, UniProt P34949); experiment: phosphomannose isomerase inhibition – biochemical, fluorescence intensity, confirmation (AID 1535)
T1 sequence (P34949 whole entry): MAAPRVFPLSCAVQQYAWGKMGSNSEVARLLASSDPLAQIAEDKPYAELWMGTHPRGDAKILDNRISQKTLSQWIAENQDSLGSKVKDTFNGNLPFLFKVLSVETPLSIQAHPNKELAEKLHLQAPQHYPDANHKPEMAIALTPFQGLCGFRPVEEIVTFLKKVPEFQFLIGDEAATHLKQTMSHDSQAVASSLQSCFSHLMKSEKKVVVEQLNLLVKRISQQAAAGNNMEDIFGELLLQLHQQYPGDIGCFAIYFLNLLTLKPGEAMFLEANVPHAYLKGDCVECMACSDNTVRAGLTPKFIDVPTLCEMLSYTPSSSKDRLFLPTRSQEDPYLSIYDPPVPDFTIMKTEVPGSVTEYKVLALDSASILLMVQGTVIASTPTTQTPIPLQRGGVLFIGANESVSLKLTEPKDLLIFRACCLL

[16] = target: Glucose-6-phosphate 1-dehydrogenase (Homo sapiens, UniProt P11413); experiment: inhibition of Homo sapiens G6PD, dose series – biochemical, fluorescence, selectivity assay for P. falciparum G6PD inhibitor project, dose response (AID 504792); type: functional
[17] = target: T2, RNA-binding protein pos-1 (Caenorhabditis elegans, UniProt G5EF15); experiment: disruptors of C. elegans POS-1 RNA interaction – biochemical, fluorescence polarization, dose response (AID 1964);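 note: purified POS-1 fused to maltose binding protein made in E. coli; potency of compounds blocking POS-1 binding to fluorescent RNA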
T2 sequence (G5EF15 whole entry): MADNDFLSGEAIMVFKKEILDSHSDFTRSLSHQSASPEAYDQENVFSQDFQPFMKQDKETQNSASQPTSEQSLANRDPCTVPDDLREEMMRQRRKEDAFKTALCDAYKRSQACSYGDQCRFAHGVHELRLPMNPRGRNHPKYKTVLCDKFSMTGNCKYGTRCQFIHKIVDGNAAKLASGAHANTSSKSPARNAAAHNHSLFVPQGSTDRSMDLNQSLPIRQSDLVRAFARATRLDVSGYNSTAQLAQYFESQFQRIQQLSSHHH

[18] = target: Induced myeloid leukemia cell differentiation protein Mcl-1 (Homo sapiens, UniProt Q07820); type: functional
[19] = target: T3, Caspase-3 (Homo sapiens, UniProt P42574); type: functional;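 note: Dose-response selectivity test against caspase-3 for candidate inhibitors of sentrin-specific proteases (SENPs)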
T3 sequence (P42574 whole entry): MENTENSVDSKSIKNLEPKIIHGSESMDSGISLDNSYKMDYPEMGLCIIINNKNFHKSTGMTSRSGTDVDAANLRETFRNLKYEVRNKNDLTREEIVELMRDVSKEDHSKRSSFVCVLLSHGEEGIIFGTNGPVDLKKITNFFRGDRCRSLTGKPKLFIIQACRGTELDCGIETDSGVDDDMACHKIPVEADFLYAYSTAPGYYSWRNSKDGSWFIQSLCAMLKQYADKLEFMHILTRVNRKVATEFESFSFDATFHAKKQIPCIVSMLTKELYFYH

[20] = target: T4, Sentrin-specific protease 8 (Homo sapiens, UniProt Q96LD8); type: functional;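 note: luminescence read-out of SENP8 inhibition, dose-response confirmation following an ultra-high-throughput screen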
T4 sequence (Q96LD8 whole entry): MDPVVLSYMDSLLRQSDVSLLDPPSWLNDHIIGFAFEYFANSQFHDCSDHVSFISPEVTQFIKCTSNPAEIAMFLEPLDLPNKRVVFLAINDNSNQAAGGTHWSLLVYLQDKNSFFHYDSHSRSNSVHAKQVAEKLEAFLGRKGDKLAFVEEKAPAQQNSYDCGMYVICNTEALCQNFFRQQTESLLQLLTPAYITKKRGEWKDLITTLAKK

[21] = IC50 of Artemis nuclease activity blockers – biochemical, fluorescence intensity, dose response (AID 720701); type: functional;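 note: Artemis endonuclease enzyme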
[22] = target: Tyrosyl-DNA phosphodiesterase 2 (Homo sapiens, UniProt O95551); experiment: potency against TDP2 phosphodiesterase activity – biochemical, epi absorbance, IC50, dose response (AID 743297)
[23] = target: Serine/threonine-protein phosphatase (Candida dubliniensis (strain CD36 / CBS 7987 / NCPF 3949 / NRRLY-17841) (Yeast), UniProt B9W6M3); experiment: Fluorescence Cell-Based Secondary Assay to Identify Inhibitors of Calcineurin. [Related pubchem assays (depositor defined):AID1979, AID2007]; type: functional
[24] = system: INS1; experiment: INS-1E survival protection against cytokine death – cell-based, luminescence, retest, dose response (AID 449756); type: functional; details: Rattus norvegicus;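 note: cell death triggered by IL-1 beta plus TNF-alpha plus IFN-gamma mixture; protective hits raise ATP signal compared with cytokine alone wells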

Chain of Maternal embryonic leucine zipper kinase (Q14680 whole entry): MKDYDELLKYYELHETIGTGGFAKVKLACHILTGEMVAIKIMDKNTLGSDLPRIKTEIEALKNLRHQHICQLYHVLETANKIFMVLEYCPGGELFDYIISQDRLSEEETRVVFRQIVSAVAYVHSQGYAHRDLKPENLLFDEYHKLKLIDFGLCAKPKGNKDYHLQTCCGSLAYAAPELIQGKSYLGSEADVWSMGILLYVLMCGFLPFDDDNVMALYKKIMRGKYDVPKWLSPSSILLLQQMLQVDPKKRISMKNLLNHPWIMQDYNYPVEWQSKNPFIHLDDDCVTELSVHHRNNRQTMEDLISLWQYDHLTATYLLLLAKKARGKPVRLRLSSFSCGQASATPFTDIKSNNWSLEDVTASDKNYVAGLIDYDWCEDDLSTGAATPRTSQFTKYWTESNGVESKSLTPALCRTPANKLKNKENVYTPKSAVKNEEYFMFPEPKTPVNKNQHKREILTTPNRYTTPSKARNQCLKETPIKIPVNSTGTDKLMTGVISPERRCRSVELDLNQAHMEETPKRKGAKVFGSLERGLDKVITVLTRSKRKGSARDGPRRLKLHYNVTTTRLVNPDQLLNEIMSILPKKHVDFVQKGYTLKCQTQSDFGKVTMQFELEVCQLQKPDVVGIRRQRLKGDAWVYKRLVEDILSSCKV
Chain of Serine/threonine-protein kinase 3 (Q13188 whole entry): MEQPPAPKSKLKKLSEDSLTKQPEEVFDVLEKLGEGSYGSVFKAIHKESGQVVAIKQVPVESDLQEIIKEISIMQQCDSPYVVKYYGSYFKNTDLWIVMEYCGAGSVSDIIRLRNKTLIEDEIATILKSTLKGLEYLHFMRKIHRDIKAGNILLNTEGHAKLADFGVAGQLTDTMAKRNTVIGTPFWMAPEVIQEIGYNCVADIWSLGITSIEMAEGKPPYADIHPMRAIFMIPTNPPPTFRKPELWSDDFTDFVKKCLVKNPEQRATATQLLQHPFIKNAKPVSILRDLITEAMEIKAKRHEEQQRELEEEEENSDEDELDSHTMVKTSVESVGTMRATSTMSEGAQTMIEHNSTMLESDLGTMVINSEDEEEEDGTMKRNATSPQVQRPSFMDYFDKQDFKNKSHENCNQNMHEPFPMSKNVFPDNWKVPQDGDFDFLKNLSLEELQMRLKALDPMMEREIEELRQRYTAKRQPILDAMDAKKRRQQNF
Chain of Lymphokine-activated killer T-cell-originated protein kinase (Q96KB5 whole entry): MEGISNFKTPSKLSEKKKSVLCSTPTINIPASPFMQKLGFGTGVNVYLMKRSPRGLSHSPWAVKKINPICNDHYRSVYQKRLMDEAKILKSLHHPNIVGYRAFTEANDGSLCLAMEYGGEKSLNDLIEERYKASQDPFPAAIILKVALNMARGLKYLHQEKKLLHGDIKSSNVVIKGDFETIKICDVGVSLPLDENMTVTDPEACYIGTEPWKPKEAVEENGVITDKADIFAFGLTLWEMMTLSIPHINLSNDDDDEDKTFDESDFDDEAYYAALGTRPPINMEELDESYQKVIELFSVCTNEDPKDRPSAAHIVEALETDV
Chain of Glucose-6-phosphate 1-dehydrogenase (P11413 whole entry, the tested form may be a part): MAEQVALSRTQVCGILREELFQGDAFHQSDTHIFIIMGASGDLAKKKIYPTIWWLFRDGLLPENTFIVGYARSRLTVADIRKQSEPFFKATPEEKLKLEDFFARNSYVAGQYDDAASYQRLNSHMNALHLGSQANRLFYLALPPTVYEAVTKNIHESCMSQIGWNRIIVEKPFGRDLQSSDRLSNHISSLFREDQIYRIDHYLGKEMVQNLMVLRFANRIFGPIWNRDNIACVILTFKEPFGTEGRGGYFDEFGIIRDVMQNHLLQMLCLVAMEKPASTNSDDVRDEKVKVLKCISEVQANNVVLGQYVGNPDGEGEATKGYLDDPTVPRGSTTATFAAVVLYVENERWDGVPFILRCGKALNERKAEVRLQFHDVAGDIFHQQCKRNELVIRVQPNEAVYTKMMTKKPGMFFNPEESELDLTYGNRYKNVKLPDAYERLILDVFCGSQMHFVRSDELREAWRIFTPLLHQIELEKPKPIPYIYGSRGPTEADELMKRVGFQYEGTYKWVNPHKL
Chain of Serine/threonine-protein phosphatase (B9W6M3 whole entry): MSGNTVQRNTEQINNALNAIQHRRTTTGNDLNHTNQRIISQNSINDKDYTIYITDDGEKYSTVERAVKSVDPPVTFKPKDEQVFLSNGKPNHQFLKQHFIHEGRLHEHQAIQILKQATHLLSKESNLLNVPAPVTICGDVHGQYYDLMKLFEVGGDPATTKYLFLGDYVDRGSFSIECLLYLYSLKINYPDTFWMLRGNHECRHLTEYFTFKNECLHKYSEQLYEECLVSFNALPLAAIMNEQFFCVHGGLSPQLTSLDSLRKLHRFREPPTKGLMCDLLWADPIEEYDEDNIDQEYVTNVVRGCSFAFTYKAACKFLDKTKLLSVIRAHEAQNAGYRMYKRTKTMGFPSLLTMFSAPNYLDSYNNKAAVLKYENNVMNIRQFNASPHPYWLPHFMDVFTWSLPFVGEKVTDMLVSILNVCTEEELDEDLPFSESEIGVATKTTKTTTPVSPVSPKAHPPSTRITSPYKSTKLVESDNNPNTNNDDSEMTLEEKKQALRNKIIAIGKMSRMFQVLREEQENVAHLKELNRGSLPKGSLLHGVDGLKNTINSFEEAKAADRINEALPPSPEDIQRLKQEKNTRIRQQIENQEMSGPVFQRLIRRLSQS
Chain of Serine/threonine-protein kinase D2 (Q9BZL6 whole entry): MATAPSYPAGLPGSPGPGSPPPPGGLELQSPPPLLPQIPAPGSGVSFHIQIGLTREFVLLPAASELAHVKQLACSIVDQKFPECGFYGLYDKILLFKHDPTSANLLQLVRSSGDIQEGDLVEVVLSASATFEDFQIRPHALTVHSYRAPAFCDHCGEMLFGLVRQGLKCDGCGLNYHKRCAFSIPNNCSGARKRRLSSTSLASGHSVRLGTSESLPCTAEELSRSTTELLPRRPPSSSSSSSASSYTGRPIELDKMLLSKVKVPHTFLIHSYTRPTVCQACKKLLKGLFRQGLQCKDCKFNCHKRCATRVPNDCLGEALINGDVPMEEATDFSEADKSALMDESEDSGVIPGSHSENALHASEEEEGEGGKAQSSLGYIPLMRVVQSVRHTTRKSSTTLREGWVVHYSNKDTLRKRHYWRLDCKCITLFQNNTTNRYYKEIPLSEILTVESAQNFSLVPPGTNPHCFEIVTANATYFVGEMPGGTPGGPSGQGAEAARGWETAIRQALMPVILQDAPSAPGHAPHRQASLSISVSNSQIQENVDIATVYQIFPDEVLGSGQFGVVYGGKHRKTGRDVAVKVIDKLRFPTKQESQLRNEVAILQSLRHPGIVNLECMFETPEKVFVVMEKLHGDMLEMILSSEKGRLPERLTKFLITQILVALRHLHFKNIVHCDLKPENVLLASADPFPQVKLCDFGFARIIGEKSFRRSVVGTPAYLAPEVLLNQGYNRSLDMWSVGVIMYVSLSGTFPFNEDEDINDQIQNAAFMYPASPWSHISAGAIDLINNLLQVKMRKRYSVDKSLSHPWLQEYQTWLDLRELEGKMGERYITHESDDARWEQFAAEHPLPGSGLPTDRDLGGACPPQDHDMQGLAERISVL
Chain of Induced myeloid leukemia cell differentiation protein Mcl-1 (Q07820 whole entry): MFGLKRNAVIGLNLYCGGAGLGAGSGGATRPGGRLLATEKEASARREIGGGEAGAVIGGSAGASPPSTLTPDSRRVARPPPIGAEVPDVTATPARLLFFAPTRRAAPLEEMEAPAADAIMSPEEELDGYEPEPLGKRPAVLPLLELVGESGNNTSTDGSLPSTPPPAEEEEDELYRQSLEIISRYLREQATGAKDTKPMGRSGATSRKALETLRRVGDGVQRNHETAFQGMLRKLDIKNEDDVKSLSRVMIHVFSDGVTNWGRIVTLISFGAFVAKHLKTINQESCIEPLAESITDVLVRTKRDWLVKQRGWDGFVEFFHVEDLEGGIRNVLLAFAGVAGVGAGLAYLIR
Chain of 3-phosphoinositide-dependent protein kinase 1 (O15530 whole entry): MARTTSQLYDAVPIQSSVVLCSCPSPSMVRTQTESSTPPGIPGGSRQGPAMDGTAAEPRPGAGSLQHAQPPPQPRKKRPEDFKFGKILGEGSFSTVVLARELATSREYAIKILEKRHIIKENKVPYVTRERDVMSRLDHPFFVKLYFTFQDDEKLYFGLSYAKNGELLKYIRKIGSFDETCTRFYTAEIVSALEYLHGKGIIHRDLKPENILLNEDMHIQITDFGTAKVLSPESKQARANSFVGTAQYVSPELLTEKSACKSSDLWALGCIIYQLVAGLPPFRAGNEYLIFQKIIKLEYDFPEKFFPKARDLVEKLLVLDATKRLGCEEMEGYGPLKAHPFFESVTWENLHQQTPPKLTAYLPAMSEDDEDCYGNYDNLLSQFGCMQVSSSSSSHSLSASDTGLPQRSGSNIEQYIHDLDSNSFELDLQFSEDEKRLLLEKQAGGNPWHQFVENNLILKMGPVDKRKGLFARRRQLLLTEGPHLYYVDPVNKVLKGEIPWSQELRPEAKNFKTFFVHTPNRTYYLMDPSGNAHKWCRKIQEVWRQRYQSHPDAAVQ

Ki [1]: > 10 µM (inactive) | Ki [2]: > 1.26 µM (inactive) | Ki [3]: 0.126 µM (active) | Ki [4]: 1.26 µM (active) | Ki [5]: 5.01 µM (active) | Ki [6]: 0.002 µM (active) | Ki [7]: 0.794 µM (active) | Ki [8]: > 7.94 µM (inactive) | Ki [9]: > 3.98 µM (inactive) | Ki [10]: 0.00631 µM (active) | Ki [11]: > 7.94 µM (inactive) | Ki [13]: > 2.51 µM (inactive) | Ki [14]: > 7.94 µM (inactive)
Structure (SMILES): Cc1cccc(NC(=O)Nc2ccc3c(c2)CCc2sc4ncnc(N)c4c2-3)c1
Ki [12]: 3.16 µM (active)

Structure (SMILES): Cc1ccc(-n2sc3ccccc3c2=O)cc1
IC50 [15]: 7.04 µM (active) and 4.06 µM (active) | IC50 [16]: 30.1 µM (inactive)

Structure (SMILES): N/C(=N\N=C/c1ccc(-c2ccc(O)c(C(=O)O)c2)o1)N[N+](=O)[O-]
EC50 [17]: 29.9 µM (active) | IC50 [18]: 3.86 µM (active)

Structure (SMILES): CC(=O)N(/N=C1\Sc2ccccc2C1=O)c1ccccc1C
IC50 [19]: 42.2 µM (active) | IC50 [20]: 3.46 µM (active) | IC50 [21]: 7.4 µM (active) | IC50 [22]: 7.67 µM (active)

Structure (SMILES): CCCC(=O)NC(c1ccc(Cl)cc1)c1ccc2cccnc2c1O (centres undefined)
EC50 [23]: > 285 µM (inactive) | AC50 [24]: 0.458 µM (active)
